Measured values published in patent publication US20250361230A1, “LATS Inhibitors and Uses Thereof” (The USA, as Represented by the Secretary, Dept. of Heath …, priority 2022, published 2025).

Experiments:
Type in all cases: biochemical
LATS1 = biological target: T1, LATS1 (Homo sapiens, UniProt O95835); test: RBC HotSpot kinase assay (33P-ATP, P81 filter-binding), LATS1; conditions: Table 28, biochemical kinase assay; read-out: LATS1 IC50
T1 sequence (O95835 1-1130): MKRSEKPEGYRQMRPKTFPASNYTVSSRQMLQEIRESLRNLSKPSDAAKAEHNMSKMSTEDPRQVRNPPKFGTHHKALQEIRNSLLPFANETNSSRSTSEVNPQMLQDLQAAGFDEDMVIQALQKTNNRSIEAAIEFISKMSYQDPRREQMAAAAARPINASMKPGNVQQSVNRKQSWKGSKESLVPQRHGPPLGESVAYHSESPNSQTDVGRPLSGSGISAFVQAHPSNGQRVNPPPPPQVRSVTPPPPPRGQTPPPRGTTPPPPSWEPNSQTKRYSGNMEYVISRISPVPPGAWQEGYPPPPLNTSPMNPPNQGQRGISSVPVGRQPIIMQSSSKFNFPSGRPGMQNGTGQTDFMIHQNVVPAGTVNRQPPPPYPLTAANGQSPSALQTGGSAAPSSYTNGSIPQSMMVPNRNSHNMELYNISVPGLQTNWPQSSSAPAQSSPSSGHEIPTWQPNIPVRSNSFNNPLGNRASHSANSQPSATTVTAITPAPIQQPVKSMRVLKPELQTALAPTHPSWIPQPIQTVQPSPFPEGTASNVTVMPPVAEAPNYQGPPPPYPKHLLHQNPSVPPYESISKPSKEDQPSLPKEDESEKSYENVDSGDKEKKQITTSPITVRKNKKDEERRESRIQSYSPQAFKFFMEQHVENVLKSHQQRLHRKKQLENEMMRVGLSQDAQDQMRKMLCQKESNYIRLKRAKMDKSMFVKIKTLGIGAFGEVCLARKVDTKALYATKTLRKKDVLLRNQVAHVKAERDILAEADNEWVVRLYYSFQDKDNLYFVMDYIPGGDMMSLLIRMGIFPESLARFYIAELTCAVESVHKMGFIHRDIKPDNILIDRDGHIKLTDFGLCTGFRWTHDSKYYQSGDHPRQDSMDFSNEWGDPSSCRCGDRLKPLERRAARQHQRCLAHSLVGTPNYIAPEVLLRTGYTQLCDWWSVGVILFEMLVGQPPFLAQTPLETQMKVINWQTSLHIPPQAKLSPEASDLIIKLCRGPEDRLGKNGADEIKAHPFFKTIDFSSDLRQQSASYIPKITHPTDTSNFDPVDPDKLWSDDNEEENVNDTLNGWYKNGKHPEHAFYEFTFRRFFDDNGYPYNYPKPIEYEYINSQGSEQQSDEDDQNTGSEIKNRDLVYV
Method in brief: (§1)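 Kinase in Hepes pH 7.5 buffer with Mg2+, EGTA, Brij35, BSA, vanadate, DTT and 1% DMSO, plus required cofactors and substrate, was preincubated 20 min at room temperature with compound. Reaction was started with 33P-ATP and run 2 h, then detected by P81 filter binding. IC50 (nM) came from 10-point singlet curves.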

LATS2 = biological target: T2, LATS2 (Homo sapiens, UniProt Q9NRM7); test: RBC HotSpot kinase assay (33P-ATP, P81 filter-binding), LATS2; conditions: Table 28, biochemical kinase assay; read-out: LATS2 IC50
T2 sequence (Q9NRM7 1-1088): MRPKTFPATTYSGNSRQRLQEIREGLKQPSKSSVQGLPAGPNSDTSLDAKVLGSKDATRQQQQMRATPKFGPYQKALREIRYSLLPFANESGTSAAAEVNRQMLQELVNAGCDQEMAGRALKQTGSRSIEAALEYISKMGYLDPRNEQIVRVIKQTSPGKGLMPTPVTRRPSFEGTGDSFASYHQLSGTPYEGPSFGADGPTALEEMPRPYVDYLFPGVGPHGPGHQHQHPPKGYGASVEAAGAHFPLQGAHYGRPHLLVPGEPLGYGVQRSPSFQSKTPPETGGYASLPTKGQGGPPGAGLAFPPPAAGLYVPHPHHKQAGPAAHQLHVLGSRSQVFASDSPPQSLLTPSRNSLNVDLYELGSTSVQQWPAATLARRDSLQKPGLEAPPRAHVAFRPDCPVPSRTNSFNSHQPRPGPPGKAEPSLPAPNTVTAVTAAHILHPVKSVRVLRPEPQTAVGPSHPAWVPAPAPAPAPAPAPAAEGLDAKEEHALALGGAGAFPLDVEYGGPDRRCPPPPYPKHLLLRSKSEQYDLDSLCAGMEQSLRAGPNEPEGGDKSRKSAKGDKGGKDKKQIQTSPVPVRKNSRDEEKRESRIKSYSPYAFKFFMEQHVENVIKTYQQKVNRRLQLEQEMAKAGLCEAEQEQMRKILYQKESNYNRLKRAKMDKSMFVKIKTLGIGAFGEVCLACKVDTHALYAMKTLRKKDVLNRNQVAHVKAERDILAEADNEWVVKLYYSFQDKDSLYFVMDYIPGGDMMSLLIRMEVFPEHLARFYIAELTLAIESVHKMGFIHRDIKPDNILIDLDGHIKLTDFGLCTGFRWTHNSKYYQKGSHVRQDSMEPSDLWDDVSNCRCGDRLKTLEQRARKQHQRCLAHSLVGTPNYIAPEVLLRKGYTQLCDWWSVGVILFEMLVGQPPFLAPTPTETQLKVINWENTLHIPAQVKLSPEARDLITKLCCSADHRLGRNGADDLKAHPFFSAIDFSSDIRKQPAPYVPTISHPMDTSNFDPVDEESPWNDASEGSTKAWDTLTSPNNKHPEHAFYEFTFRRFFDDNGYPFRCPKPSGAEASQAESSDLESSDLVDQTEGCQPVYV
Method in brief: as §1

AKT = AKT (Homo sapiens, UniProt P31749); test: RBC HotSpot kinase assay (33P-ATP, P81 filter-binding), AKT; conditions: Table 28, biochemical kinase assay; read-out: AKT IC50
Method in brief: as §1

AKT, sequence (P31749 whole entry): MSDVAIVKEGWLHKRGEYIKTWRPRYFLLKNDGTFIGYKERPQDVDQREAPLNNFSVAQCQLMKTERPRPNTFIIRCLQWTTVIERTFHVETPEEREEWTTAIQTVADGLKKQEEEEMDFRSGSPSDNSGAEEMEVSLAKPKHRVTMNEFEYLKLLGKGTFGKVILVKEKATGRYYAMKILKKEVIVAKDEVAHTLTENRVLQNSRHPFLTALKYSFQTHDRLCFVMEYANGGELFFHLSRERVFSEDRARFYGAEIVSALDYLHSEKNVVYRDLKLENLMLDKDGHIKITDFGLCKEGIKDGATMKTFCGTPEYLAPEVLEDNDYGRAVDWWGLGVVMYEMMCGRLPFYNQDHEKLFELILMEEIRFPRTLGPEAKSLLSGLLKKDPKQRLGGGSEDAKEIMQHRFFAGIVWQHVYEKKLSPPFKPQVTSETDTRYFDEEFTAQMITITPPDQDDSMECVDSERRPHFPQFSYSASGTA

SMILES	IC50 (LATS1)	IC50 (LATS2)	IC50 (AKT)
CN1[C@@H]2CC[C@H]1CC(O)(c1ccc(-c3ccnc4[nH]cc(F)c34)cc1)C2 (stereo partly drawn) [Compound 133, (1R,5S)-3-(4-(3-fluoro-1H-pyrrolo[2,3-b]pyridin-4-yl)phenyl)-8-methyl-8-azabicyclo[3.2.1]octan-3-ol]	20.1 nM	19.1 nM	390 nM
CN1CC2CC(C1)C2(O)c1ccc(-c2ccnc3[nH]cc(F)c23)cc1Cl (stereo not drawn) [Compound 134, 6-(2-chloro-4-(3-fluoro-1H-pyrrolo[2,3-b]pyridin-4-yl)phenyl)-3-methyl-3-azabicyclo[3.1.1]heptan-6-ol]	43.5 nM	116 nM	788 nM
Cc1nc(-c2ccnc3[nH]ccc23)ccc1C1(O)CCN(C)CC1 [Compound 135, 1-methyl-4-(2-methyl-6-(1H-pyrrolo[2,3-b]pyridin-4-yl)pyridin-3-yl)piperidin-4-ol]	736 nM	682 nM	7960 nM
CN1C[C@H]2CC[C@@H](C1)C2(O)c1ccc(-c2ccnc3[nH]cc(F)c23)cc1Cl (stereo partly drawn) [Compound 136, (1R,5S,8s)-8-(2-chloro-4-(3-fluoro-1H-pyrrolo[2,3-b]pyridin-4-yl)phenyl)-3-methyl-3-azabicyclo[3.2.1]octan-8-ol]	69.8 nM	118 nM	1060 nM
OC1(c2c(F)cc(-c3ccnc4[nH]cc(F)c34)cc2F)CC2(CN(C3COC3)C2)C1 [Compound 138, 6-(2,6-difluoro-4-(3-fluoro-1H-pyrrolo[2,3-b]pyridin-4-yl)phenyl)-2-(oxetan-3-yl)-2-azaspiro[3.3]heptan-6-ol]	66.4 nM	117 nM	2710 nM
O=S1(=O)CCC(N2CC3(C2)CC(O)(c2c(F)cc(-c4ccnc5[nH]cc(F)c45)cc2F)C3)CC1 [Compound 140, 4-(6-(2,6-difluoro-4-(3-fluoro-1H-pyrrolo[2,3-b]pyridin-4-yl)phenyl)-6-hydroxy-2-azaspiro[3.3]heptan-2-yl)tetrahydro-2H-thiopyran 1,1-dioxide]	56.8 nM	120 nM	1580 nM
CC(C)(C)OC(=O)N1CCC(O)(c2ccc(-c3ccnc4[nH]ccc34)cc2)CC1 [Compound 141, tert-butyl 4-(4-(1H-pyrrolo[2,3-b]pyridin-4-yl)phenyl)-4-hydroxypiperidine-1-carboxylate]	897 nM	465 nM	> 10000 nM
O=C([C@@H]1CCCN1)N1CCC(O)(c2ccc(-c3ccnc4[nH]cc(F)c34)cc2)CC1 [Compound 143, (S)-3-fluoro-4-(4-(4-hydroxy-1-prolylpiperidin-4-yl)phenyl)-1H-pyrrolo[2,3-b]pyridine]	26 nM	12 nM	1460 nM
O=C([C@@H]1CCCN1)N1CC(O)(c2ccc(-c3ccnc4[nH]cc(F)c34)cc2Cl)C1 [Compound 144, (S)-4-(3-chloro-4-(3-hydroxy-1-prolylazetidin-3-yl)phenyl)-3-fluoro-1H-pyrrolo[2,3-b]pyridine]	50 nM	26 nM	2770 nM
NCc1ccc(-c2cc(-c3ccnc4[nH]cc(Br)c34)ccc2C2CCNCC2)cc1 [Compound 151, (5′-(3-bromo-1H-pyrrolo[2,3-b]pyridin-4-yl)-2′-(piperidin-4-yl)-[1,1′-biphenyl]-4-yl)methanamine]	16.6 nM	15.1 nM	170 nM
COC(=O)c1c[nH]c2nccc(-c3ccc(C4CCNCC4)c(-c4ccc(CN)cc4)c3)c12 [Compound 152, methyl 4-(4′-(aminomethyl)-6-(piperidin-4-yl)-[1,1′-biphenyl]-3-yl)-1H-pyrrolo[2,3-b]pyridine-3-carboxylate]	66.3 nM	50.2 nM	4410 nM
c1ccc(-c2cc(-c3ccnc4[nH]ccc34)ccc2C2CCNCC2)cc1 [Compound 153, 4-(6-(piperidin-4-yl)-[1,1′-biphenyl]-3-yl)-1H-pyrrolo[2,3-b]pyridine]	15.2 nM	20.4 nM	378 nM

Continued, values first:

IC50 (LATS1)	IC50 (LATS2)	IC50 (AKT)	SMILES
28 nM	25 nM	1070 nM	CN1CCC(O)(c2ccc(-c3ccnc4[nH]cc(F)c34)cc2)CC1 [Compound 131, 4-(4-(3-fluoro-1H-pyrrolo[2,3-b]pyridin-4-yl)phenyl)-1-methylpiperidin-4-ol]
2.9 nM	5.7 nM	490 nM	CN1CCC(O)(c2ccc(-c3ccnc4[nH]ccc34)cc2)CC1 [Compound 132, 4-(4-(1H-pyrrolo[2,3-b]pyridin-4-yl)phenyl)-1-methylpiperidin-4-ol]
108 nM	350 nM	1180 nM	CN1CC(O)(c2ccc(-c3ccnc4[nH]cc(F)c34)cc2Cl)C1 [Compound 137, 3-(2-chloro-4-(3-fluoro-1H-pyrrolo[2,3-b]pyridin-4-yl)phenyl)-1-methylazetidin-3-ol]
28.3 nM	46 nM	1870 nM	NCC(=O)N1CC2(C1)CC(O)(c1c(F)cc(-c3ccnc4[nH]cc(F)c34)cc1F)C2 [Compound 145, 2-amino-1-(6-(2,6-difluoro-4-(3-fluoro-1H-pyrrolo[2,3-b]pyridin-4-yl)phenyl)-6-hydroxy-2-azaspiro[3.3]heptan-2-yl)ethan-1-one]
203 nM	94.8 nM	2460 nM	c1cc(-c2ccc(C3CC4CCCC(C3)N4)cc2)c2cc[nH]c2n1 (stereo not drawn) [Compound 146, 4-(4-(9-azabicyclo[3.3.1]nonan-3-yl)phenyl)-1H-pyrrolo[2,3-b]pyridine]
7.7 nM	17.8 nM	1080 nM	NCC(=O)N1CCC(c2ccc(-c3ccnc4[nH]cc(F)c34)cc2Cl)CC1 [Compound 148, 2-amino-1-(4-(2-chloro-4-(3-fluoro-1H-pyrrolo[2,3-b]pyridin-4-yl)phenyl)piperidin-1-yl)ethan-1-one]
4.3 nM	1 nM	67.3 nM	NCc1ccc(-c2cc(-c3ccnc4[nH]cc(F)c34)ccc2C2CCNCC2)cc1 [Compound 149, (5′-(3-fluoro-1H-pyrrolo[2,3-b]pyridin-4-yl)-2′-(piperidin-4-yl)-[1,1′-biphenyl]-4-yl)methanamine]
32.9 nM	25.9 nM	967 nM	NC(=O)c1ccc(-c2cc(-c3ccnc4[nH]ccc34)ccc2C2CCNCC2)cc1 [Compound 150, 2′-(piperidin-4-yl)-5′-(1H-pyrrolo[2,3-b]pyridin-4-yl)-[1,1′-biphenyl]-4-carboxamide]
